From publication PMC10233823, “Conjugates of Aminoglycosides with Stapled Peptides as a Way to Target Antibiotic-Resistant Bacteria” (ACS Omega, 2023)
Converted amounts (≈) assume the structure as drawn. Where two headings read alike, the source gives them in different places. Ends that are not written are not given here. Peptide text beside a SMILES is read from it.

What was measured:
[1] = system: S. aureus ATCC BAA1720 MRSA; assay: microbe, parasite or virus in culture; type: cell-based, Staphylococcus aureus; conditions: MIC wells diluted in fresh MHB, 24 h, 37 °C
Protocol: (§1) The antibacterial activity of the conjugates was assessed by determining their minimum inhibitory concentration (MIC) and minimum bactericidal concentration (MBC) against Gram-negative E. coli (K12 MG 1655 and WR 3551/98) and Gram-positive S. aureus (ATCC 29213 and ATCC BAA1720 MRSA) strains (Table 1, Figures S16–S23).
(§2) The MBC values were determined by diluting wells from the MIC experiment plate in fresh MHB medium. Dilutions of 10-, 100-, and 1000-times were prepared for the MIC well and up to two-folds higher than MIC concentrations of a given compound. Dilutions were made on a transparent flat-bottom 96-well plate (Nest), which was then sealed and incubated for 24 h, at 37 °C with shaking. The growth of a given sample well was compared with GC and SC controls.

S. aureus ATCC 29213 [2] = assay: microbe, parasite or virus in culture; type: cell-based, Staphylococcus aureus; conditions: MIC wells diluted in fresh MHB, 24 h, 37 °C, read-out: MBC
Protocol: as §1, §2

[3] = system: S. aureus ATCC BAA1720 MRSA; assay: microbe, parasite or virus in culture; type: cell-based, Staphylococcus aureus; conditions: S. aureus ATCC BAA1720 MRSA (NEO-resistant); MHB, 20 h, 37 °C with shaking, OD600
Protocol: as §1
(§3) The MIC values were determined as follows. Bacteria were first cultured overnight in 2 mL of lysogeny broth (LB, VWR Chemicals) at 37 °C with shaking. Next, 20 μL of overnight culture was transferred into 2 mL of […] (MHB, Difco) medium and further cultured at 37 °C with shaking until the culture reached OD600 = 0.3. Subsequently, the culture was diluted 1:100 in a fresh MHB medium, and aliquots of 50 μL were mixed with 50 μL of previously prepared dilutions of the tested compound in MHB on a transparent flat-bottom 96-well plate (Nest). The plate was then sealed with transparent foil (Titer-Tops) and incubated for 20 h, at 37 °C with shaking. Following incubation, optical density at 600 nm was measured using a Tecan Sunrise plate reader. Growth inhibition was determined by comparing the given sample with untreated culture (growth control—GC) with MHB alone (sterility control—SC) as an additional reference. The experiment was conducted in at least two biological replicates of two technical replicates each. Statistical significance was determined by the two-way ANOVA test using GraphPad Prism 9 software.

S. aureus ATCC 29213 [4] = assay: microbe, parasite or virus in culture; type: cell-based, Staphylococcus aureus; conditions: MHB, 20 h, 37 °C with shaking, OD600
Protocol: as §1, §3

E. coli WR 3551/98 [5] = assay: microbe, parasite or virus in culture; type: cell-based, Escherichia coli; conditions: MIC wells diluted in fresh MHB, 24 h, 37 °C
Protocol: as §1, §2

E. coli K12 MG1655 [6] = assay: microbe, parasite or virus in culture; type: cell-based, Escherichia coli; conditions: MIC wells diluted 10-, 100-, 1000-times in fresh MHB, 24 h, 37 °C, bactericidal if no growth at 100- and 1000-times dilutions, read-out: MBC
Protocol: as §1, §2

E. coli WR 3551/98 [7] = assay: microbe, parasite or virus in culture; type: cell-based, Escherichia coli; conditions: for MIC: E. coli WR 3551/98 (AMK-resistant), MHB, 20 h, 37 °C with shaking, OD600
Protocol: as §1, §3

E. coli K12 MG1655 [8] = assay: microbe, parasite or virus in culture; type: cell-based, Escherichia coli; conditions: MHB, 20 h, 37 °C with shaking, OD600, at least two biological replicates of two technical replicates
Protocol: as §1, §3

S. aureus ATCC 29213 [9] = assay: Checkerboard synergy test; type: cell-based, Staphylococcus aureus; conditions: MIC not determined, tested range up to 128 μM
Protocol: The synergy between the compounds was assessed using the checkerboard method in a similar way as mentioned in our previous study.[79],[80] Bacteria were first cultured overnight in 2 mL of LB (VWR Chemicals) at 37 °C with shaking. Next, 20 μL of overnight culture was transferred into 2 mL of MHB medium and further cultured at 37 °C with shaking until the culture reached OD600 = 0.3. Subsequently, culture was diluted 1:200 in a fresh MHB medium, and aliquots of 90 μL were mixed with 10 μL of previously prepared dilutions of tested compounds in MHB on a transparent flat-bottom 96-well plate (Nest). The plate was then sealed with transparent adhesive foil (Titer-Tops) and incubated for 20 h, at 37 °C with shaking. Following incubation, optical density at 600 nm was measured using the Tecan Sunrise plate reader. Growth inhibition was determined by comparing the given sample with untreated culture (GC) with MHB alone (SC) as an additional reference. The FIC index was calculated for the first cell within each row and column where growth inhibition was observed. The following formula was used [drawing 1] Ca, Cb—concentration of the agent in combination, and MICa, MICb—MICs for agent a and agent b alone.
Then, the median FIC was determined for the entire checkerboard. In addition, the minimal and maximal values were distinguished (Table 2). […]

Compound	MBC [1]	MBC (S. aureus ATCC 29213 [2])	MIC [3]	MIC (S. aureus ATCC 29213 [4])	MBC (E. coli WR 3551/98 [5]; read-out: MBC)	MBC (E. coli K12 MG1655 [6])	MIC enhancement compared to anoplin monomer (E. coli WR 3551/98 [7]; E. coli WR 3551/98)	MIC (E. coli WR 3551/98 [7])	MIC (E. coli K12 MG1655 [8])	MBC (E. coli WR 3551/98 [5])	growth inhibition concentration threshold (S. aureus ATCC 29213 [9])
CC[C@H](C)[C@H](NC(=O)[C@H](CCCNC(=N)N)NC(=O)[C@H](CCCCN)NC(=O)[C@H](CC(C)C)NC(=O)[C@H](CC(C)C)NC(=O)CNC(=O)[C@@H](N)CSSC[C@H](N)C(=O)NCC(=O)N[C@@H](CC(C)C)C(=O)N[C@@H](CC(C)C)C(=O)N[C@@H](CCCCN)C(=O)N[C@@H](CCCNC(=N)N)C(=O)N[C@H](C(=O)N[C@@H](CCCCN)C(=O)N[C@H](C(=O)N[C@@H](CC(C)C)C(=O)N[C@@H](CC(C)C)C(N)=O)[C@@H](C)O)[C@@H](C)CC)C(=O)N[C@@H](CCCCN)C(=O)N[C@H](C(=O)N[C@@H](CC(C)C)C(=O)N[C@@H](CC(C)C)C(N)=O)[C@@H](C)O [anoplin-SS-anoplin] (HELM PEPTIDE1{C.G.L.L.K.R.I.K.T.L.L.[am]}|PEPTIDE2{C.G.L.L.K.R.I.K.T.L.L.[am]}$PEPTIDE1,PEPTIDE2,1:R3-1:R3$$$V2.0)	32 µM (≈ 80.4 µg/mL)	32 µM (≈ 80.4 µg/mL)	16 µM (≈ 40.2 µg/mL)	16 µM (≈ 40.2 µg/mL)	2 µM (≈ 5.02 µg/mL)	8 µM (≈ 20.1 µg/mL)	32 fold	1 µM (≈ 2.51 µg/mL)	4 µM (≈ 10 µg/mL)		
CC[C@H](C)[C@H](NC(=O)[C@H](CCCNC(=N)N)NC(=O)[C@H](CCCCN)NC(=O)[C@H](CC(C)C)NC(=O)[C@H](CC(C)C)NC(=O)CNC(=O)CCCCCCCCc1cn(C[C@H]2O[C@H](O[C@@H]3[C@@H](O)[C@H](O[C@H]4O[C@H](CN)[C@@H](O)[C@H](O)[C@H]4O)[C@@H](N)C[C@H]3NC(=O)[C@@H](O)CCN)[C@H](O)[C@@H](N)[C@@H]2O)nn1)C(=O)N[C@@H](CCCCN)C(=O)N[C@H](C(=O)N[C@@H](CC(C)C)C(=O)N[C@@H](CC(C)C)C(N)=O)[C@@H](C)O [AMK-anoplin] (HELM PEPTIDE1{[NCC[C@H](O)C(=O)N[C@@H]1C[C@H](N)[C@@H](O[C@H]2O[C@H](CN)[C@@H](O)[C@H](O)[C@H]2O)[C@H](O)[C@H]1O[C@H]1O[C@H](Cn2cc(CCCCCCCCC(=O)[*:2])nn2)[C@@H](O)[C@H](N)[C@H]1O].G.L.L.K.R.I.K.T.L.L.[am]}$$$$V2.0)	>32 µM	>32 µM	>32 µM	32 µM (≈ 61.7 µg/mL)		16 µM (≈ 30.9 µg/mL)		16 µM (≈ 30.9 µg/mL)	16 µM (≈ 30.9 µg/mL)	16 to 32 µM	
GLLKRIKTLL-NH2 (C-terminus assumed) [anoplin, reference compound]	>32 µM	>32 µM	>32 µM	>32 µM	>32 µM	≥32 µM		>32 µM			higher than 128 μM
